In publication PMC6503653 (European journal of medicinal chemistry, 2018):

Experiments:
[1] = system: E. coli and the human cytosolic A-site; assay: Selectivity factor, E. coli versus human cytosolic A-site; type: binding; details: 5.75 × IC50(human)/IC50(E. coli); above 5.75 = selectivity to bacterial A-site
[2] = system: 4 MRSA NEO-resistant strains; assay: MIC against the MRSA NEO-resistant strains; type: cell-based, Staphylococcus aureus
E. coli H4H = assay: MIC and growth inhibition, microdilution; type: cell-based, Escherichia coli; details: concentration not given
APH(2″)-Ia = APH(2″)-Ia (Staphylococcus aureus, UniProt P0A0C1); assay: AME modification of conjugates, APH; type: biochemical
APH(2″)-Ia, sequence (P0A0C1 whole entry): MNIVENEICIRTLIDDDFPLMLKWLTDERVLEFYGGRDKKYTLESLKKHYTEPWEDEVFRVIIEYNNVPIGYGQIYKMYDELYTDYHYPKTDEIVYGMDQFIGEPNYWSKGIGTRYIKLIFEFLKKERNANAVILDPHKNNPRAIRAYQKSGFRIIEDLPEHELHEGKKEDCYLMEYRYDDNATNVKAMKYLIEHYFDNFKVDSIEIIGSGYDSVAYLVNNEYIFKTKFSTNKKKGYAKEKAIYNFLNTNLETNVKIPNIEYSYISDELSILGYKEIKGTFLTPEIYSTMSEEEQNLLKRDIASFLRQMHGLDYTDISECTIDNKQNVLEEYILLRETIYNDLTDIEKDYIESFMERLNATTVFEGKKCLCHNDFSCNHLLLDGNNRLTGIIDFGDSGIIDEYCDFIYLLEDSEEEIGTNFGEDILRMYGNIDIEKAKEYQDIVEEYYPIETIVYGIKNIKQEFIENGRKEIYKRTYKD

L1-stage C. elegans = assay: Toxicity in C. elegans, MTT assay; type: in vivo, Caenorhabditis elegans; details: lowest concentrations used (3.13 – 1.56 μM), 24 h
rRNA A-site = details: read-out: IC50, F-NEO screening test; range over rRNA A-sites; cited from earlier work

**Q.** For `NC[C@@H]1O[C@H](O[C@H]2[C@@H](O)[C@H](O[C@@H]3[C@@H](O)[C@H](N)C[C@H](N)[C@H]3O[C@H]3O[C@H](CN)[C@@H](O)[C@H](O)[C@H]3N)O[C@@H]2CNC(=O)Cc2ccc3ccc4cccc5ccc2c3c45)[C@H](N)[C@@H](O)[C@@H]1O` [Compound 10], which Selectivity factor [1] is on record?
**A.** Its Selectivity factor is 7.12.

**Q.** With `NC[C@@H]1O[C@H](O[C@H]2[C@@H](O)[C@H](O[C@@H]3[C@@H](O)[C@H](N)C[C@H](N)[C@H]3O[C@H]3O[C@H](CN)[C@@H](O)[C@H](O)[C@H]3N)O[C@@H]2CNC(=O)CCc2ccc3ccc4cccc5ccc2c3c45)[C@H](N)[C@@H](O)[C@@H]1O` [Compound 11] as the molecule, how does the Selectivity factor [1] read?
**A.** The Selectivity factor was 8.29.

**Q.** For `NC[C@@H]1O[C@H](O[C@H]2[C@@H](O)[C@H](O[C@@H]3[C@@H](O)[C@H](N)C[C@H](N)[C@H]3O[C@H]3O[C@H](CN)[C@@H](O)[C@H](O)[C@H]3N)O[C@@H]2CNC(=O)CCCc2ccc3ccc4cccc5ccc2c3c45)[C@H](N)[C@@H](O)[C@@H]1O` [Compound 12], which Selectivity factor [1] is on record?
**A.** Its Selectivity factor is 6.76.

**Q.** And the “MIC values times lower than that of NEO” value [2]?
**A.** The value was 4-16 times.

**Q.** For `NC[C@@H]1O[C@H](O[C@H]2[C@@H](O)[C@H](O[C@@H]3[C@@H](O)[C@H](N)C[C@H](N)[C@H]3O[C@H]3O[C@H](CN)[C@@H](O)[C@H](O)[C@H]3N)O[C@@H]2CSCCNC(=O)Cc2ccc3ccc4cccc5ccc2c3c45)[C@H](N)[C@@H](O)[C@@H]1O` [Compound 13], which Selectivity factor [1] is on record?
**A.** The Selectivity factor was 5.87.

**Q.** What about the “MIC values times lower than that of NEO” value [2] of the same molecule?
**A.** Its value is 4-16 times.

**Q.** With `NC[C@@H]1O[C@H](O[C@H]2[C@@H](O)[C@H](O[C@@H]3[C@@H](O)[C@H](N)C[C@H](N)[C@H]3O[C@H]3O[C@H](CN)[C@@H](O)[C@H](O)[C@H]3N)O[C@@H]2CSCCNC(=O)CCc2ccc3ccc4cccc5ccc2c3c45)[C@H](N)[C@@H](O)[C@@H]1O` [Compound 14] as the molecule, how does the Selectivity factor [1] read?
**A.** Its Selectivity factor is 6.14.

**Q.** With `NC[C@@H]1O[C@H](O[C@H]2[C@@H](O)[C@H](O[C@@H]3[C@@H](O)[C@H](N)C[C@H](N)[C@H]3O[C@H]3O[C@H](CN)[C@@H](O)[C@H](O)[C@H]3N)O[C@@H]2CSCCNC(=O)CCCc2ccc3ccc4cccc5ccc2c3c45)[C@H](N)[C@@H](O)[C@@H]1O` [Compound 15] as the molecule, how does the Selectivity factor [1] read?
**A.** The Selectivity factor was 6.80.

**Q.** And the “reduction in growth / growth inhibition” value (E. coli H4H)?
**A.** The value was “* A 30% reduction in growth was observed for compounds 15 and 16 with E. coli H4H”.

**Q.** And the “modification by APH(2″)-Ia relative to NEO” value (APH(2″)-Ia)?
**A.** Its value is “increased activity”.

**Q.** What about the “MIC values times lower than that of NEO” value [2] of the same molecule?
**A.** The value was 4-16 times.

**Q.** For `NC[C@@H]1O[C@H](O[C@H]2[C@@H](O)[C@H](O[C@@H]3[C@@H](O)[C@H](N)C[C@H](N)[C@H]3O[C@H]3O[C@H](CN)[C@@H](O)[C@H](O)[C@H]3N)O[C@@H]2CSCCNC(=S)NCCCCCCNC(=O)CCCc2ccc3ccc4cccc5ccc2c3c45)[C@H](N)[C@@H](O)[C@@H]1O` [Compound 16], which Selectivity factor [1] is on record?
**A.** The Selectivity factor was 5.70.

**Q.** What about the “reduction in growth / growth inhibition” value (E. coli H4H) of the same molecule?
**A.** The value was “* A 30% reduction in growth was observed for compounds 15 and 16 with E. coli H4H”.

**Q.** And the “MIC values times lower than that of NEO” value [2]?
**A.** The value was 4-16 times.

**Q.** Which “toxicity / larvae viability compared with the untreated control” value (L1-stage C. elegans) does the source give for `NC[C@@H]1O[C@H](O[C@H]2[C@@H](O)[C@H](O[C@@H]3[C@@H](O)[C@H](N)C[C@H](N)[C@H]3O[C@H]3O[C@H](CN)[C@@H](O)[C@H](O)[C@H]3N)O[C@@H]2CO)[C@H](N)[C@@H](O)[C@@H]1O` [NEO, Neomycin B] here?
**A.** Its value is “no significant difference”.

**Q.** What about the IC50 (rRNA A-site) of the same molecule?
**A.** Its IC50 is 68 to 114 nM.
